Assay results taken from publication PMC3441706 (PLoS ONE, 2012).

Legend:
Format in all cases: cell-based, human
HT-29 cells = test: Flow cytometric cell cycle analysis; settings: HT-29, 24 hours
Description: (§1) HT-29, HeLa and HCT116 cells were plated in 6-well plates. […] CPT was used at 50 nM and 1 µM. To analyze the cell cycle distribution, cells were collected after 24 hours of incubation and washed with PBS. Cells were fixed in 70% ethanol for at least 2 hours. For analysis, cells were transferred into PBS, incubated with RNAse A (0.04 µg/ml final concentration) for 30 minutes at 37°C, treated with […] propidium iodide for 30 min at 4°C and then analyzed by flow cytometry using BD FACScan (Becton, Dickinson and Company, Franklin Lakes, NJ, USA). The resulting DNA histograms were quantified using ModFit LT (Verity Software House, Topsham, ME, USA).

HeLa cells [1] = test: Flow cytometric cell cycle analysis; settings: 24 hours
Description: as §1

HCT116 cells [2] = test: Flow cytometric cell cycle analysis; settings: HCT116, 24 hours
Description: as §1

γH2AX (Ser139) = test: Immunofluorescence staining and quantification of γH2AX in HeLa cells
Description: (§2) HCT116 and HeLa cells were seeded on glass cover slips in 6-well plates. 24 hours after plating, HCT116 cells were incubated with 0.15, 0.5 and 1 µM NVX-412 and 1 µM CPT for 24 hours for staining of p-p53. For investigating γH2AX, HeLa cells were incubated with 0.21, 0.5 and 1 µM NVX-412 and 1 µM CPT for 3 or 24 hours. Additionally, cells were allowed to recover for 24 hours in normal growth medium after 24 hours of incubation with NVX-412 or CPT (wash-out experiment). After the respective treatments, cells were washed and fixed with 4% methanol-free formaldehyde (Polysciences Inc. Warrington, PA, USA) for 15 minutes at room temperature and then permeabilized with 0.2% Triton X-100/PBS for 2 minutes at room temperature. After blocking with goat serum (5%) in 1% BSA/0.3% Triton X-100/PBS, the respective primary antibody was added and cells were incubated at 4°C overnight. Antibodies used were: mouse p-p53 (Ser15) (Cell Signaling Technology, Danvers, MA, USA) at 1∶100 dilution and mouse p-H2AX (Ser139) (Millipore, Billerica, MA, USA) at 1∶1000 dilution in 1% BSA/PBS, respectively. Cells were then washed 3 times for 10 minutes with 0.25% BSA/0.1% Triton X-100/PBS and incubated with the Alexa Fluor 488 conjugated secondary anti-mouse antibody (1∶1000 in 0.25% BSA/0.1% Triton X-100/PBS) for 1 hour at room temperature in the dark. Cells were washed 3 times for 10 minutes with 0.05% Tween-20/PBS containing Hoechst 33342 (Sigma Aldrich, Vienna, AUT) and mounted with mounting medium (Fluoprep, bioMérieux, Marcy l'Etoile, FRA). Fluorescence was immediately recorded on a Zeiss LSM700 laser scanning microscope.
The common procedure for assessing γH2AX induction is to count γH2AX foci. Since with NVX-412 and the positive control CPT γH2AX activation was that strong, no distinguishable and countable foci were seen. Therefore, the average γH2AX fluorescence intensity per nucleus was determined. To this end, γH2AX intensities within a certain field were measured using Quantity One –4.6.9 (Basic freeware version, Bio-Rad Laboratories, Hercules, CA, USA) and were divided by the number of nuclei in this field.

HeLa cells [3] = test: DNA replication rate (BrdU incorporation ELISA); settings: 24 hours treatment then 24 hours in normal growth medium
Description: (§3) HeLa and HCT116 cells were plated in black 96-well plates. After cells were allowed to recover for 24 hours NVX-412 or CPT was added in fresh growth medium. After 24 hours of incubation a chemiluminescent BrdU Incorporation ELISA (Roche Applied Science, Penzberg, Germany) was performed with half of the plates according to the manufacturer’s protocol. Cells in the remaining plates were allowed to recover for 24 hours in normal growth medium before DNA replication was measured (wash-out experiment). To check whether a possible decline in DNA replication rate is not simply due to lower cell numbers because of cell death induction, the proportion of viable cells was determined in parallel by a MTT-based cytotoxicity assay according to the manufacturer’s protocol (EZ4U, Biomedica, Vienna, Austria). Colorimetric (at 492 and 620 nm) and chemiluminescent measurements were performed using a FLUOstar OPTIMA (BMG Labtech, Ortenberg, Germany).

HCT116 cells [4] = test: DNA replication rate (BrdU incorporation ELISA); settings: HCT116, 24 hours treatment then 24 hours in normal growth medium
Description: as §3

p-p53 (Ser15) [5] = test: Immunofluorescence staining of p-p53 (Ser15) in HCT116 cells; settings: HCT116, 24 hours, 1 µM (positive control)
Description: as §2

p-p53 (Ser15) [6] = test: Western Blot for p-p53 (Ser15) in HCT116 cells; settings: HCT116, 24 and 48 hours, 1 µM (control)
Description: Treated cells were directly lysed in NP40 cell lysis buffer (Invitrogen, Grand Island, NY, USA) containing protease and phosphatase inhibitors. Protein concentrations were measured colorimetrically (DC Protein Assay, Bio-Rad Laboratories, Hercules, CA, USA). Proteins were separated by SDS - polyacrylamide gel electrophoresis and blotted onto nitrocellulose membranes (Whatman™, Vienna, AUT). Equal loading was checked by Ponceau S (SERVA, Heidelberg, GER) staining. Bound antigen was visualized with the enhanced chemiluminescence detection system (Roche Diagnostics, Indianapolis, IN, USA). These procedures were performed according to the manufacturer’s protocols. Antibodies specific for the following proteins of interest were used: pChk1 (Ser296), p-p53 (Ser15), β-Tubulin and GAPDH were obtained from Cell Signaling Technology (Danvers, MA, USA) at 1∶1000 dilution. Secondary antibodies were peroxidase-tagged goat anti-rabbit or anti-mouse IgGs (Cell Signaling Technology) (1∶2000).

[7] = system: HCT116 p53+/+ or p53−/− cells; test: Determination of p53 status dependency; settings: HCT116 p53+/+ vs p53−/−, 72 hours, viable cell numbers
Description: (§4) The isogenic colon carcinoma cells lines HCT116 p53+/+ or p53−/− and RKO p53+/+ or p53−/− were cultured in 12-well plates. After a recovery period of 24 hours, NVX-412 or Nutlin-3 was added in fresh growth medium at the indicated concentrations. […] After 24 or 72 hours cell numbers were determined with a Beckman Coulter ViCell XR.

[8] = system: RKO p53+/+ or p53−/− cells; test: Determination of p53 status dependency; settings: RKO p53+/+ vs p53−/−, 72 hours, viable cell numbers
Description: as §4

Structure (SMILES): CC[C@@]1(O)C(=O)OCc2c1cc1n(c2=O)Cc2cc3ccccc3nc2-1 [CPT, (S)-(+)-Camptothecin, reference compound]
- Cell cycle distribution (HT-29 cells; 50 nM): G2/M arrest
- Cell cycle distribution (HT-29 cells; 1 µM): S-phase arrest
- Cell cycle distribution (HeLa cells [1]; 50 nM): G2/M arrest
- Cell cycle distribution (HeLa cells [1]; 1 µM): S-phase arrest
- Cell cycle distribution (HCT116 cells [2]; 50 nM): G2/M-phase arrest
- Cell cycle distribution (HCT116 cells [2]; 1 µM): most of the cells were already dead
- γH2AX induction (γH2AX (Ser139); 3 hours): Only a slight induction of γH2AX
- γH2AX levels after recovery (wash-out) (γH2AX (Ser139); 24 hours treatment then 24 hours without drug): not reversible
- DNA replication rate after recovery (wash-out) (HeLa cells [3]): a recovery was only observed at the lowest concentration tested
- DNA replication rate after recovery (wash-out) (HCT116 cells [4]): a recovery was only observed at the lowest concentration tested
- p-p53 (Ser15) immunofluorescence staining (p-p53 (Ser15) [5]): positive for nuclear staining of p-p53 (Ser15)
- Phosphorylated p53 (Western Blot) (p-p53 (Ser15) [6]): strong induction

Structure (SMILES): COc1ccc(C2=N[C@@H](c3ccc(Cl)cc3)[C@@H](c3ccc(Cl)cc3)N2C(=O)N2CCNC(=O)C2)c(OC(C)C)c1 [Nutlin-3, reference compound]
- p53 status dependency of sensitivity [7]: p53+/+ cells being much more sensitive than p53−/− cells
- p53 status dependency of sensitivity [8]: p53+/+ cells being much more sensitive than p53−/− cells
